In patent US9108936B2, “Substituted 4-aminobenzamides as KCNQ2/3 modulators” (GRUENENTHAL GMBH, priority 2012, dated 2015):

Assays:
Male Sprague-Dawley rats = assay: Low-intensity tail flick test (rat); assay type: in vivo; settings: for ED50: po, peroral, at time of maximum efficacy
Experimental: Method II. Low-Intensity Tail Flick Test (Rat)
In the low-intensity tail flick test, the determination of the antinociceptive effect of the compounds according to the invention towards an acute noxious thermal stimulus is carried out by measuring the withdrawal reflex of the rat tail (tail flick) in response to a radiant heat beam (analgesia meter; model 2011 of the company Rhema Labortechnik, Hofheim, Germany) according to the method described by D'Amour and Smith (J. Pharm. Exp. Ther. 72, 74 79 (1941). To this end, the rats were placed in a plexiglas restrainer, and a low-intensity radiant heat beam (48° C.) was focused onto the dorsal surface of the tail root. The stimulus intensity was adjusted to result in a mean pre-drug control withdrawal latency of about 7 s, thus also allowing a supraspinal modulation of the spinally mediated acute nociceptive reflex. A cutoff time of 30 s was applied to avoid tissue damage. Male Sprague-Dawley rats (Janvier, Le Genest St. Isle, Frankreich) with weights of 200-250 g were used. 10 rats were used per group. Before administration of a compound according to the invention, the animals were pre-tested twice in the course of five minutes and the mean of these measurements was calculated as the pre-test mean. The antinociceptive effect was determined at 20, 40 and 60 min after peroral compound administration. The antinociceptive effect was calculated based on the increase in the tail withdrawal latency according to the following formula and is expressed as percentage of the maximum possible effect (MPE [%]): MPE=[(T1−T0)/(T2−T0)]*100
In this, T0 is the control latency time before and T1 the latency time after administration of the compound, T2 is the cutoff time and MPE is the maximum possible effect. Employing variant analysis (repeated measures ANOVA) allowed testing of statistically significant differences between the compounds according to the invention and the vehicle group. The significance level was set to p≦0.05. To determine the dose dependency, the particular compound according to the invention was administered in 3-5 logarithmically increasing doses, including a threshold dose and a maximum effective dose, and the ED50 values were determined with the aid of regression analysis. The ED50 calculation was performed at the time of maximum efficacy (usually 20 min after administration of the compounds).

KCNQ2/3 channels = target: T1, KCNQ2/3 channels (Homo sapiens, UniProt O43525+O43526); assay: Fluorescence assay using a voltage sensitive dye (fluorimetry); assay type: cell-based; settings: CHO-K1 cells expressing KCNQ2/3; for Emax: plateau effect relative to saturated Retigabine (50 μM), read-out: Fluorimetry % efficacy (retigabine = 100%); for EC50: voltage-sensitive dye, KCl depolarization, read-out: Fluorimetry EC50/IC50
T1 construct: expressed in transfected cells; host or cells: CHO-K1
Description: Method I. Fluorescence Assay Using a Voltage Sensitive Dye (Fluorimetry)
The modulation of the KCNQ opening state (and consequently the voltage potential of a cell) by test compounds such as compounds according to the present invention results in an increased or reduced amount of a voltage-sensitive dye in the cytoplasm of the cells tested. These voltage-sensitive dyes are fluorescent dyes and, therefore, are forming the link between cell potential influenced by KCNQ modulation and fluorescence intensity. A KCNQ agonist leads to an opening of the channel, potassium and dye efflux, a following hyperpolarization and a reduction of the inner fluorescence intensity in a kinetic protocol. If applying an ion jump by KCl depolarization, KCNQ agonists increase the ΔF/F value. An antagonist performs vice versa, respectively.
The ‘fluorimetry EC50’ is the half maximum effective concentration (EC50), where the concentration of a drug/compound induces a response halfway between the baseline and maximum plateau effect. In other words, said value represents the concentration of a compound, where 50% of its maximal effect in the fluorimetric assay is observed if the substance concentration is graphed against the corresponding ΔF/F values (for which the calculation method is described below). Therefore, ‘fluorimetry EC50’ is a measure for the compound potency. The compound efficacy is mirrored by ‘fluorimetry % efficacy’ (‘% Efficacy’) and refers to the maximum response achievable by the test compound, i.e. the plateau effect. This drug's plateau effect is related to the plateau effect, which can be achieved by applying a saturated concentration of a reference compound, e.g. Retigabine (50 μM), in independent wells of the same experimental plate or series. A compound showing 100% efficacy is as efficacious as the reference compound (Retigabine) with a saturated concentration.
[…] CHO-K1 cells expressing KCNQ2/3 channels are cultivated adherently at 37° C., 5% CO2 and 95% humidity in cell culture bottles (e.g. 80 cm^2 TC flasks, Nunc) with DMEM-high glucose (Sigma Aldrich, D7777) including 10% FCS (PAN Biotech, e.g. 3302-P270521) or alternatively MEM Alpha Medium (1×, liquid, Invitrogen, #22571), 10% fetal calf serum (FCS) (Invitrogen, #10270-106, heat-inactivated) and the necessary selection antibiotics.
Before being sown out for the measurements, the cells are washed with 1× DPBS buffer Ca^2+/Mg^2+-free (e.g. Invitrogen, #14190-094) and detached from the bottom of the culture vessel by using Accutase (PAA Laboratories, #L11-007) (incubation with Accutase for 15 min at 37° C.). The cell number is determined using a CASY™ cell counter (TCC, Schärfe System). Depending on the optimal density for each individual cell line, 20,000-30,000 cells/well/100 μl are seeded onto 96-well Corning™ CellBIND™ assay plates (Flat Clear Bottom Black Polystyrene Microplates, #3340). Freshly seeded cells are then left to settle for one hour at room temperature, followed by incubation for 24 hours at 37° C., 5% CO2 and 95% humidity.
The voltage-sensitive fluorescent dye from the Membrane Potential Assay Kit (Red™ Bulk format part R8123 for FLIPR, MDS Analytical Technologies™) is prepared by dissolving the contents of one vessel Membrane Potential Assay Kit Red Component A in 200 ml of extracellular buffer (ES buffer, 120 mM NaCl, 1 mM KCl, 10 mM HEPES, 2 mM CaCl2, 2 mM MgCl2, 10 mM glucose; pH 7.4). After removal of the nutrient medium, the cells are washed once with 200 μl of ES buffer, then loaded for 45 min at room temperature in 100 μl of dye solution in the dark.
Fluorescence measurements are carried out in a BMG Labtech FLUOstar™, BMG Labtech NOVOstar™ or BMG Labtech POLARstar™ instrument (525 nm excitation, 560 nm emission, Bottom Read mode). […]

Emax (KCNQ2/3 channels)	EC50 (KCNQ2/3 channels)	Compound	Low intensity tail flick, rat, peroral, MPE (dose) (Male Sprague-Dawley rats; dose 10 mg/kg)	ED50 (Male Sprague-Dawley rats)	Low intensity tail flick, rat, peroral, MPE (dose) (Male Sprague-Dawley rats; dose 14.7 mg/kg)
175%	136 nM	Cc1cc(N2CCOCC2)cc(C(C)C)c1C(=O)NCc1ccc(Cl)cc1 [Example 14, N-[(4-Chlorophenyl)-methyl]-2-isopropyl-6-methyl-4-morpholin-4-yl-benzamide]	92%	3.6 mg/kg	
179%	663 nM	Cc1cc(N2CCOCC2)cc(C(C)C)c1C(=O)NCc1ccc(F)cc1 [Example 17, N-[(4-Fluorophenyl)methyl]-2-isopropyl-6-methyl-4-morpholin-4-yl-benzamide]		2.5 mg/kg	100%
156%	3610 nM	Cc1cc(N2CCOCC2)cc(C(C)C)c1C(=O)NCc1ccc(Cl)cn1 [Example 34, N-[(5-Chloro-pyridin-2-yl)-methyl]-2-isopropyl-6-methyl-4-morpholin-4-yl-benzamide]			
167%	748 nM	Cc1cc(N2CCOCC2)cc(N2CC[C@@H](F)C2)c1C(=O)NCc1ccc(Cl)cc1 [Example 38, N-[(4-Chlorophenyl)-methyl]-2-[(3R)-3-fluoro-pyrrolidin-1-yl]-6-methyl-4-morpholin-4-yl-benzamide]			
196%	217 nM	CC(C)c1cc(N2CCOCC2)cc(F)c1C(=O)NCc1ccc(Cl)cc1 [Example 39, N-[(4-Chlorophenyl)-methyl]-2-fluoro-6-isopropyl-4-morpholin-4-yl-benzamide]			
196%	165 nM	COc1cc(N2CCOCC2)cc(C(C)C)c1C(=O)NCc1ccc(Cl)cc1 [Example 40, N-[(4-Chlorophenyl)-methyl]-2-isopropyl-6-methoxy-4-morpholin-4-yl-benzamide]			
181%	506 nM	CCc1cc(N2CCOCC2)cc(CC)c1C(=O)NCc1ccc(Cl)cc1 [Example 41, N-[(4-Chlorophenyl)-methyl]-2,6-diethyl-4-morpholin-4-yl-benzamide]			

Second part, the molecule before the results:

Compound	Emax (KCNQ2/3 channels)	EC50 (KCNQ2/3 channels)	Low intensity tail flick, rat, peroral, MPE (dose) (Male Sprague-Dawley rats; dose 10 mg/kg)	ED50 (Male Sprague-Dawley rats)	Low intensity tail flick, rat, peroral, MPE (dose) (Male Sprague-Dawley rats; dose 14.7 mg/kg)
Cc1cc(N2CCOCC2)cc(C(C)C)c1C(=O)NCC[C@H](O)C(C)(C)C [Example 31, N-[(3S)-3-Hydroxy-4,4-dimethyl-pentyl]-2-isopropyl-6-methyl-4-morpholin-4-yl-benzamide]	230%	416 nM			
Cc1cc(N2CCOCC2)cc(C2CC2)c1C(=O)NCC(O)CC(C)(C)C (stereo not drawn) [Example 32, 2-Cyclopropyl-N-(2-hydroxy-4,4-dimethyl-pentyl)-6-methyl-4-morpholin-4-yl-benzamide]	159%	3810 nM			
Cc1cc(N2CCOCC2)cc(C(C)C)c1C(=O)NCC(O)CC(C)(C)C (stereo not drawn) [Example 33, N-(2-Hydroxy-4,4-dimethyl-pentyl)-2-isopropyl-6-methyl-4-morpholin-4-yl-benzamide]	216%	1370 nM			
Cc1cc(N2CCOCC2)cc(C(C)C)c1C(=O)NCc1ccc(C(F)(F)F)cn1 [Example 35, 2-Isopropyl-6-methyl-4-morpholin-4-yl-N-[[5-(trifluoromethyl)-pyridin-2-yl]-methyl]-benzamide]	134%	3070 nM			
Cc1cc(N2CCOCC2)cc(C2CC2)c1C(=O)NCc1ccc(C(F)(F)F)cn1 [Example 36, 2-Cyclopropyl-6-methyl-4-morpholin-4-yl-N-[[5-(trifluoromethyl)-pyridin-2-yl]-methyl]-benzamide]	89%	5260 nM			
Cc1cc(N2CCOCC2)cc(C2CCOC2)c1C(=O)NCc1ccc(Cl)cc1 (stereo not drawn) [Example 37, N-[(4-Chlorophenyl)-methyl]-2-methyl-4-morpholin-4-yl-6-tetrahydro-furan-3-yl-benzamide]	166%	1690 nM			
